Measured values reported in ChEMBL document CHEMBL1129421, “Comparative molecular field analysis of haptens docked to the multispecific antibody IgE(Lb4)” (J Med Chem, 1996).

system: Monoclonal antibody (mAb); test: Ability to bind to monoclonal antibody IgE (Lb4), expressed as association constant (LogKA)

**Q.** For `O[C@@](CCN1CCCCC1)(c1ccccc1)C1CCCC1`, which Log KA is on record?
**A.** 4.84

**Q.** For `CSCCC(Nc1ccc([N+](=O)[O-])cc1[N+](=O)[O-])C(=O)O` (centres undefined), which Log KA is on record?
**A.** 5.72

**Q.** `CC(Nc1ccc([N+](=O)[O-])cc1[N+](=O)[O-])C(=O)O` (centres undefined) was tested. Which Log KA did it give?
**A.** 5.8

**Q.** With `N=C(N)NCCC[C@H](Nc1ccc([N+](=O)[O-])cc1[N+](=O)[O-])C(=O)O` as the compound, how does the Log KA read?
**A.** 5.04

**Q.** With `N[C@@H](CCCCNc1ccc([N+](=O)[O-])cc1[N+](=O)[O-])C(=O)O` as the compound, how does the Log KA read?
**A.** 4.38

**Q.** For `O=C(O)C(CO)Nc1ccc([N+](=O)[O-])cc1[N+](=O)[O-]` (centres undefined), which Log KA is on record?
**A.** 5.5

**Q.** Which Log KA does the source give for `O=[N+]([O-])c1ccc(O)c([N+](=O)[O-])c1` here?
**A.** 4.89

**Q.** `CC(C)C(Nc1ccc([N+](=O)[O-])cc1[N+](=O)[O-])C(=O)O` (centres undefined) was tested. Which Log KA did it give?
**A.** 5.93

**Q.** For `O=C(O)c1cccc(C(=O)O)c1C(=O)O`, which Log KA is on record?
**A.** 4.77

**Q.** For `Nc1ccc2ccccc2c1`, which Log KA is on record?
**A.** 5.71

**Q.** `O=C(CCC(=O)Oc1ccccc1C(=O)O)Oc1ccccc1C(=O)O` was tested. Which Log KA did it give?
**A.** 4.57

**Q.** How did the Log KA turn out when `C[N+](C)(C)CC(O)C[N+](C)(C)C` was run?
**A.** 4.66

**Q.** `O=C(O)C(Cc1ccc(O)cc1)Nc1ccc([N+](=O)[O-])cc1[N+](=O)[O-]` (centres undefined) was tested. Which Log KA did it give?
**A.** 4.85

**Q.** With `N#C/C(=C\c1ccccc1)C(=O)O` as the compound, how does the Log KA read?
**A.** 5.04

**Q.** Which Log KA does the source give for `O=C(O)CCC(Nc1ccc([N+](=O)[O-])cc1[N+](=O)[O-])C(=O)O` (centres undefined) here?
**A.** 4.63

**Q.** How did the Log KA turn out when `O=C(O)C(Cc1ccccc1)Nc1ccc([N+](=O)[O-])cc1[N+](=O)[O-]` (centres undefined) was run?
**A.** 5.78

**Q.** Which Log KA does the source give for `CC(=O)Nc1nnc(S(N)(=O)=O)s1` here?
**A.** 5

**Q.** `Cc1ccc(O)c(C(=O)O)c1` was tested. Which Log KA did it give?
**A.** 5.38

**Q.** With `O=C(O)CC(Nc1ccc([N+](=O)[O-])cc1[N+](=O)[O-])C(=O)O` (centres undefined) as the compound, how does the Log KA read?
**A.** 5.5

**Q.** Which Log KA does the source give for `Nc1ccc(/N=N/c2ccccc2)c(N)n1` here?
**A.** 6.5

**Q.** Which Log KA does the source give for `O[C@](CCN1CCCCC1)(c1ccccc1)C1CCCC1` here?
**A.** 4.84

**Q.** With `CC(O)C(Nc1ccc([N+](=O)[O-])cc1[N+](=O)[O-])C(=O)O` (centres undefined) as the compound, how does the Log KA read?
**A.** 5.49

**Q.** Which Log KA does the source give for `O=C(O)C(Cc1c[nH]c2ccccc12)Nc1ccc([N+](=O)[O-])cc1[N+](=O)[O-]` (centres undefined) here?
**A.** 5.93

**Q.** Which Log KA does the source give for `NC(=O)CCC(Nc1ccc([N+](=O)[O-])cc1[N+](=O)[O-])C(=O)O` (centres undefined) here?
**A.** 5.08

**Q.** Which Log KA does the source give for `O=C(O)C1CCCN1c1ccc([N+](=O)[O-])cc1[N+](=O)[O-]` (centres undefined) here?
**A.** 5.19

**Q.** Which Log KA does the source give for `O=C(O)CNc1ccc([N+](=O)[O-])cc1[N+](=O)[O-]` here?
**A.** 4.9

**Q.** For `O=C(O)c1ccc2ccccc2c1O`, which Log KA is on record?
**A.** 6.71

**Q.** How did the Log KA turn out when `NC(=O)CC(Nc1ccc([N+](=O)[O-])cc1[N+](=O)[O-])C(=O)O` (centres undefined) was run?
**A.** 4.92

**Q.** `CC(C)CC(Nc1ccc([N+](=O)[O-])cc1[N+](=O)[O-])C(=O)O` (centres undefined) was tested. Which Log KA did it give?
**A.** 5.39
